Experimental data taken from ChEMBL document CHEMBL3352178, “Antidepressant- and anxiolytic-like activity of 7-phenylpiperazinylalkyl-1,3-dimethyl-purine-2,6-dione derivatives with diversified 5-HT₁A receptor functional profile” (Bioorg Med Chem, 2015).
Active and inactive are the calls of the source. The rule behind the calls is not given here.

Assays:
Rattus norvegicus [1] = test: Induction of lower lip retraction in rat assessed as lower lip retraction scores at 1 mg/kg, ip dosed 45 mins after 0.3 mg/kg, sc 5HT1A receptor antagonist WAY 100635; assay type: functional
Mus musculus [2] = test: Induction of hypothermia in mouse assessed as change in body temperature at 10 mg/kg, ip administered 30 mins before test and measured 90 mins post dose; assay type: functional, organism-based; parameters: dose 10 mg/kg
Rattus norvegicus [3] = test: Induction of lower lip retraction in rat assessed as lower lip retraction scores at 0.5 mg/kg, ip dosed 15 mins before test; assay type: functional; conditions: route intraperitoneal
Mus musculus [4] = test: Induction of hypothermia in mouse assessed as change in body temperature at 5 mg/kg, ip administered 30 mins before test and measured 90 mins post dose; assay type: functional, organism-based; parameters: dose 5 mg/kg
Mus musculus [5] = test: Induction of hypothermia in mouse assessed as change in body temperature at 2.5 mg/kg, ip administered 30 mins before test and measured 30 mins post dose; assay type: functional, organism-based; parameters: dose 2.5 mg/kg
[6] = biological target: 5-hydroxytryptamine receptor 7 (Homo sapiens, UniProt P34969); test: Displacement of [3H]]-5-CT from human cloned 5-HT7R expressed in HEK293 cells; assay type: cell-based
Mus musculus [7] = test: Inhibition of (+/-)-DOI-induced head twitch response in mouse assessed as head twitches per 20 mins at 2.5 mg/kg, ip dosed 60 mins before (+/-)-DOI injection (reference value: 21.6 +/- 3.4/20 mins); assay type: functional; conditions: route intraperitoneal
Rattus norvegicus [8] = test: Induction of lower lip retraction in rat assessed as lower lip retraction scores at 1 mg/kg, ip dosed 15 mins before test; assay type: functional; conditions: route intraperitoneal
[9] = biological target: T1, 5-hydroxytryptamine receptor 1A (Rattus norvegicus, UniProt P19327); test: Displacement of [3H]-8-OH-DPAT from 5-HT1AR in rat hippocampus; assay type: tissue-based
T1 sequence (P19327 whole entry): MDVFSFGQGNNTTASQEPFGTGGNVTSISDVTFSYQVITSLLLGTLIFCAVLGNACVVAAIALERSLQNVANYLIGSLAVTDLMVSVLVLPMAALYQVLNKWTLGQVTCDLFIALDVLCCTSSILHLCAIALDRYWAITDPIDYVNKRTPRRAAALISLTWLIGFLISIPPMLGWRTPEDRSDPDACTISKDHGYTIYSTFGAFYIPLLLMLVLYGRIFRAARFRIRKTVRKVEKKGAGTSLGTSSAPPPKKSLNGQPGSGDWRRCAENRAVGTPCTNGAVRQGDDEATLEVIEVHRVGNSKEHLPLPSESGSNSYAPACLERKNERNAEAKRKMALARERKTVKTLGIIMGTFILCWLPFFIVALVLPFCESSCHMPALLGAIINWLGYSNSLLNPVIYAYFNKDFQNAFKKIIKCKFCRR

Mus musculus [10] = test: Induction of hypothermia in mouse assessed as change in body temperature at 10 mg/kg, ip administered 30 mins before test and measured 30 mins post dose; assay type: functional, organism-based; parameters: dose 10 mg/kg
Mus musculus [11] = test: Inhibition of (+/-)-DOI-induced head twitch response in mouse assessed as head twitches per 20 mins at 20 mg/kg, ip dosed 60 mins before (+/-)-DOI injection (reference value: 21.6 +/- 3.4/20 mins); assay type: functional; conditions: route intraperitoneal
Mus musculus [12] = test: Induction of hypothermia in mouse assessed as change in body temperature at 10 mg/kg, ip administered 30 mins before test and measured 60 mins post dose; assay type: functional, organism-based; parameters: dose 10 mg/kg
Mus musculus [13] = test: Inhibition of (+/-)-DOI-induced head twitch response in mouse assessed as head twitches per 20 mins at 10 mg/kg, ip dosed 60 mins before (+/-)-DOI injection (reference value: 21.6 +/- 3.4/20 mins); assay type: functional; conditions: route intraperitoneal
Mus musculus [14] = test: Induction of hypothermia in mouse assessed as change in body temperature at 2.5 mg/kg, ip administered 30 mins before test and measured 30 mins post dose in presence of 0.3 mg/kg, sc 5HT1A receptor antagonist WAY 100635; assay type: functional, organism-based
Mus musculus [15] = test: Antidepressant-like activity in mouse assessed as reduction in immobility time at 5 mg/kg, ip dosed 60 mins before test by forced swim test; assay type: functional; parameters: scale not given: the % may be the effect or the level left; conditions: route intraperitoneal
Mus musculus [16] = test: Anxiolytic-like activity in mouse assessed as increase in number of punished crossings at 20 mg/kg, ip dosed 60 mins before test by four plate test; assay type: functional; conditions: route intraperitoneal
Mus musculus [17] = test: Induction of hypothermia in mouse assessed as change in body temperature at 2.5 mg/kg, ip administered 30 mins before test and measured 60 mins post dose in presence of 0.3 mg/kg, sc 5HT1A receptor antagonist WAY 100635; assay type: functional, organism-based
Mus musculus [18] = test: Induction of hypothermia in mouse assessed as change in body temperature at 5 mg/kg, ip administered 30 mins before test and measured 120 mins post dose; assay type: functional, organism-based; parameters: dose 5 mg/kg
Mus musculus [19] = test: Induction of hypothermia in mouse assessed as change in body temperature at 10 mg/kg, ip administered 30 mins before test and measured 120 mins post dose; assay type: functional, organism-based; parameters: dose 10 mg/kg
Mus musculus [20] = test: Effect on spontaneous locomotor activity in mouse at 20 mg/kg, ip; assay type: ADME, organism-based; parameters: dose 20 mg/kg, route intraperitoneal; conditions: in vivo
Mus musculus [21] = test: Induction of hypothermia in mouse assessed as change in body temperature at 2.5 mg/kg, ip administered 30 mins before test and measured 90 mins post dose; assay type: functional, organism-based; parameters: dose 2.5 mg/kg
Mus musculus [22] = test: Induction of hypothermia in mouse assessed as change in body temperature at 5 mg/kg, ip administered 30 mins before test and measured 30 mins post dose in presence of 0.3 mg/kg, sc 5HT1A receptor antagonist WAY 100635; assay type: functional, organism-based
[23] = biological target: 5-hydroxytryptamine receptor 2A (Rattus norvegicus, UniProt P14842); test: Displacement of [3H]-ketanserin from 5-HT2AR in rat cortex
Mus musculus [24] = test: Inhibition of (+/-)-DOI-induced head twitch response in mouse dosed intraperitoneally 60 mins before (+/-)-DOI injection; assay type: functional
[25] = biological target: 5-hydroxytryptamine receptor 6 (Homo sapiens, UniProt P50406); test: Displacement of [3H]LSD from human cloned 5-HT6R expressed in HEK293 cells; assay type: cell-based
Mus musculus [26] = test: Induction of hypothermia in mouse assessed as change in body temperature at 5 mg/kg, ip administered 30 mins before test and measured 60 mins post dose in presence of 0.3 mg/kg, sc 5HT1A receptor antagonist WAY 100635; assay type: functional, organism-based
Mus musculus [27] = test: Anxiolytic-like activity in mouse assessed as increase in number of punished crossings at 20 mg/kg, ip dosed 60 mins before test in presence of 0.3 mg/kg, sc 5HT1A receptor antagonist WAY 100635 by four plate test; assay type: functional, organism-based
Mus musculus [28] = test: Antidepressant-like activity in mouse assessed as reduction in immobility time at 5 mg/kg, ip dosed 60 mins before test in presence of 0.3 mg/kg, sc 5HT1A receptor antagonist WAY 100635 by forced swim test; assay type: functional, organism-based
Mus musculus [29] = test: Induction of hypothermia in mouse assessed as change in body temperature at 2.5 mg/kg, ip administered 30 mins before test and measured 120 mins post dose; assay type: functional, organism-based; parameters: dose 2.5 mg/kg
Mus musculus [30] = test: Inhibition of (+/-)-DOI-induced head twitch response in mouse assessed as head twitches per 20 mins at 5 mg/kg, ip dosed 60 mins before (+/-)-DOI injection (reference value: 21.6 +/- 3.4/20 mins); assay type: functional; conditions: route intraperitoneal
Mus musculus [31] = test: Induction of hypothermia in mouse assessed as change in body temperature at 2.5 mg/kg, ip administered 30 mins before test and measured 60 mins post dose; assay type: functional, organism-based; parameters: dose 2.5 mg/kg
D(2) dopamine receptor = D(2) dopamine receptor (Rattus norvegicus, UniProt P61169); test: Displacement of [3H]-spiperone from dopamine D2 receptor in rat striatum
Mus musculus [32] = test: Induction of hypothermia in mouse assessed as change in body temperature at 5 mg/kg, ip administered 30 mins before test and measured 60 mins post dose; assay type: functional, organism-based; parameters: dose 5 mg/kg
Mus musculus [33] = test: Effect on spontaneous locomotor activity in ip dosed mouse during 2 to 6 mins; assay type: ADME, organism-based; conditions: in vivo
Mus musculus [34] = test: Antidepressant-like activity in mouse assessed as reduction in immobility time at 10 mg/kg, ip dosed 60 mins before test by forced swim test; assay type: functional; parameters: scale not given: the % may be the effect or the level left; conditions: route intraperitoneal
Mus musculus [35] = test: Induction of hypothermia in mouse assessed as change in body temperature at 5 mg/kg, ip administered 30 mins before test and measured 30 mins post dose; assay type: functional, organism-based; parameters: dose 5 mg/kg

Chain of 5-hydroxytryptamine receptor 7 (P34969 whole entry): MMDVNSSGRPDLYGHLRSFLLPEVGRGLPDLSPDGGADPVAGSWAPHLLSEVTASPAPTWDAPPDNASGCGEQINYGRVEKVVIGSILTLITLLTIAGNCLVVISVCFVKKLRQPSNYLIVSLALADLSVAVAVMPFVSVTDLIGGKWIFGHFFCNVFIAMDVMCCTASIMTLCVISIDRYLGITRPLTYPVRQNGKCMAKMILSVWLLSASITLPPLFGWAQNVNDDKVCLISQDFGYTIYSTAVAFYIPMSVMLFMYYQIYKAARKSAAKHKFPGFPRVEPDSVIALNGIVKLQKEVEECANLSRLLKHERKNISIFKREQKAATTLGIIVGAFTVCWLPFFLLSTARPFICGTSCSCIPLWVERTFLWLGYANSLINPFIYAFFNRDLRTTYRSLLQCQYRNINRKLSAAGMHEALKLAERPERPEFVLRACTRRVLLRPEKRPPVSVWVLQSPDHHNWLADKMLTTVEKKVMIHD
Chain of 5-hydroxytryptamine receptor 2A (P14842 whole entry): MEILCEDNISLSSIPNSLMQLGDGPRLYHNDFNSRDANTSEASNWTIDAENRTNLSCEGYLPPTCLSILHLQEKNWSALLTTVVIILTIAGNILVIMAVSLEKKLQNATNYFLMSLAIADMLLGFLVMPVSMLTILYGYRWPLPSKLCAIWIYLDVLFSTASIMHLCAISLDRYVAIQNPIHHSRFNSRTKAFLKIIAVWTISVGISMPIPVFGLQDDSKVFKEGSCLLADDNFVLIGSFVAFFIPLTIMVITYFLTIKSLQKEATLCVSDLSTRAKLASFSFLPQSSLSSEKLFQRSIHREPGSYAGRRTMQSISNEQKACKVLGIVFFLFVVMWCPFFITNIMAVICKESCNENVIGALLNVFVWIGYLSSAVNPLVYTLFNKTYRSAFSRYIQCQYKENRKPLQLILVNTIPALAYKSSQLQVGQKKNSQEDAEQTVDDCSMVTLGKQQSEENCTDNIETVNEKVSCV
Chain of 5-hydroxytryptamine receptor 6 (P50406 whole entry): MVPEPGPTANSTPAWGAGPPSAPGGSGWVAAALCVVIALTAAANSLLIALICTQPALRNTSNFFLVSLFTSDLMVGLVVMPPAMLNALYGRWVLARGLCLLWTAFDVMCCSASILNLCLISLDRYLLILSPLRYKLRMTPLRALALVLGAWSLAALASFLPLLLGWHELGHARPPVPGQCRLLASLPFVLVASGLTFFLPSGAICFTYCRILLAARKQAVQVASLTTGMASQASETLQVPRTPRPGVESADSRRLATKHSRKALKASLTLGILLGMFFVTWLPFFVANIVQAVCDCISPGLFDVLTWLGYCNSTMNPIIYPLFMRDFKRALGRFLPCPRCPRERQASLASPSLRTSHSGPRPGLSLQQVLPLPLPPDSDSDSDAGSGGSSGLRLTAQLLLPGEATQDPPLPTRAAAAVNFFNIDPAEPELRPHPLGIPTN
Chain of D(2) dopamine receptor (P61169 whole entry): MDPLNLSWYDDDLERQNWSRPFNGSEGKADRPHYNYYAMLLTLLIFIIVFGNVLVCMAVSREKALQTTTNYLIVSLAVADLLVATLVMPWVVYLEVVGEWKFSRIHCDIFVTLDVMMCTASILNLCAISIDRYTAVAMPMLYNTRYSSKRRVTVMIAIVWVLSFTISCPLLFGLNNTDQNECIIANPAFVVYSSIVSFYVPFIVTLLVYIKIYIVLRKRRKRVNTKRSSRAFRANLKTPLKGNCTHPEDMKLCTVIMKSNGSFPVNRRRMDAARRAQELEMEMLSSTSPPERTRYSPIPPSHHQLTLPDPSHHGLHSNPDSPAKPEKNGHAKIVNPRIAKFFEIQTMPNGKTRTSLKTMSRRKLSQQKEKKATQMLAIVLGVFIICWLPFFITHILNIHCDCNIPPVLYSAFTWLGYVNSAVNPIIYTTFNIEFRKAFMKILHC

Compound: Cl.Cn1c(=O)c2c(ncn2CCCCN2CCN(c3cccc(Cl)c3)CC2)n(C)c1=O
- Activity (Rattus norvegicus [1]): 0.1
- deltaT (Mus musculus [2]): -1.3 °C
- Activity (Rattus norvegicus [3]): 0.3
- deltaT (Mus musculus [4]): -0.6 °C
- deltaT (Mus musculus [5]): -1.8 °C
- Ki [6]: 0.479 µM
- Activity (Mus musculus [7]): 11
- Activity (Rattus norvegicus [8]): 1.5
- Ki [9]: 0.001 µM
- deltaT (Mus musculus [10]): -2 °C
- Activity (Mus musculus [11]): 3.2
- deltaT (Mus musculus [12]): -1.7 °C
- Activity (Mus musculus [13]): 3.8
- deltaT (Mus musculus [14]): -0.8 °C
- Activity (Mus musculus [15]): 37%
- Activity (Mus musculus [16]): 57%
- deltaT (Mus musculus [17]): -0.2 °C
- deltaT (Mus musculus [18]): -0.2 °C
- deltaT (Mus musculus [19]): 0.8 °C
- Activity (Mus musculus [20]): Non-toxic
- deltaT (Mus musculus [21]): -0.1 °C
- deltaT (Mus musculus [22]): -1.5 °C
- Ki [23]: 0.102 µM
- inhibition (Mus musculus [24]): Dose-dependent effect
- ED50 (Mus musculus [24]; ip, read-out: ID50 (the source's name)): 5.09 mg/kg
- Ki [25]: 5.15 µM
- deltaT (Mus musculus [26]): -0.6 °C
- Activity (Mus musculus [27]): inactive
- Activity (Mus musculus [28]): inactive
- deltaT (Mus musculus [29]): 0 °C
- Activity (Mus musculus [30]): 7.7
- deltaT (Mus musculus [31]): -0.8 °C
- Ki (D(2) dopamine receptor): 0.195 µM
- deltaT (Mus musculus [32]): -1.1 °C
- Activity (Mus musculus [33]): Non-toxic
- Activity (Mus musculus [34]): 30%
- deltaT (Mus musculus [35]): -2.1 °C
